For this test, the target named is CFTR-mediated chloride transport (Homo sapiens, UniProt P13569). It is filed as cell-based. Conditions: enteroid cells incubated with test compound 18-24 hours, acute 10 μM forskolin and 300 nM Compound III; for Max. Activity: % of chloride transport with 3 μM Compound A, 3 μM Compound II and 300 nM acute Compound III triple combination control. The method, then:
Base medium (ADF+++) consisted of Advanced DMEM/Ham's F12, 2 mM Glutamax, 10 mM HEPES, […] penicillin/streptomycin.
Intestinal enteroid maintenance medium (IEMM) consisted of ADF+++, 1× B27 supplement, 1× N2 supplement, 1.25 mM N-acetyl cysteine, 10 mM Nicotinamide, 50 ng/mL hEGF, 10 nM Gastrin, 1 μg/mL hR-spondin-1, 100 ng/mL hNoggin, TGF-b type 1 inhibitor A-83-01, 100 μg/mL Primocin, 10 μM P38 MAPK inhibitor SB202190.
Bath 1 Buffer consisted of 1 mM MgCl2, 160 mM NaCl, 4.5 mM KCl, 10 mM HEPES, 10 mM Glucose, 2 mM CaCl2).
Chloride Free Buffer consisted of 1 mM Magnesium Gluconate, 2 mM Calcium Gluconate, 4.5 mM Potassium Gluconate, 160 mM Sodium Gluconate, 10 mM HEPES, 10 mM Glucose.
Bath1 Dye Solution consisted of Bath 1 Buffer, 0.04% Pluronic F127, 20 μM Methyl Oxonol, 30 μM CaCCinh-A01, 30 μM Chicago Sky Blue.
Chloride Free Dye Solution consisted of Chloride Free Buffer, 0.04% Pluronic F127, 20 μM Methyl Oxonol, 30 μM CaCCinh-A01, 30 μM Chicago Sky Blue.
Chloride Free Dye Stimulation Solution consisted of Chloride Free Dye Solution, 10 μM forskolin, 100 μM IBMX, and 300 nM Compound III.
Human intestinal epithelial enteroid cells were obtained from the Hubrecht Institute for Developmental Biology and Stem Cell Research, Utrecht, The Netherlands and expanded in T-Flasks as previously described (Dekkers J F, Wiegerinck C L, de Jonge H R, Bronsveld I, Janssens H M, de Winter-de Groot K M, Brandsma A M, de Jong N W M, Bijvelds M J C, Scholte B J, Nieuwenhuis E E S, van den Brink S, Clevers H, van der Ent C K, Middendorp S and M Beekman J M. A functional CFTR assay using primary cystic fibrosis intestinal organoids. Nat Med. 2013 July; 19(7):939-45).
Cells were recovered in cell recovery solution, collected by centrifugation at 650 rpm for 5 min at 4° C., resuspended in TryPLE and incubated for 5 min at 37° C. Cells were then collected by centrifugation at 650 rpm for 5 min at 4° C. and resuspended in IEMM containing 10 μM ROCK inhibitor (RI) (trans-4-[(1R)-1-aminoethyl]-N-4-pyridinylcyclohexanecarboxamide). The cell suspension was passed through a 40 μm cell strainer and resuspended at 1×10^6 cells/mL in IEMM containing 10 μM RI. Cells were seeded at 5000 cells/well into multi-well plates and incubated for overnight at 37° C., 95% humidity and 5% CO2 prior to assay.
Enteroid cells were incubated with test compound in IEMM for 18-24 hours at 37° C., 95% humidity and 5% CO2. Following compound incubations, a membrane potential dye assay was employed using a FLIPR Tetra to directly measure the potency and efficacy of the test compound on CFTR-mediated chloride transport following acute addition of 10 μM forskolin and 300 nM Compound III. Briefly, cells were washed 5 times in Bath 1 Buffer. Bath 1 Dye Solution was added and the cells were incubated for 25 min at room temperature. Following dye incubation, cells were washed 3 times in Chloride Free Dye Solution. Chloride transport was initiated by addition of Chloride Free Dye Stimulation Solution and the fluorescence signal was read for 15 min. The CFTR-mediated chloride transport for each condition was determined from the AUC of the fluorescence response to acute forskolin and 300 nM Compound III stimulation. Chloride transport was then expressed as a percentage of the chloride transport following treatment with 3 μM Compound A, 3 μM Compound II and 300 nM acute Compound III triple combination control (% Activity).

CFTR-mediated chloride transport, sequence (P13569 whole entry, looked up): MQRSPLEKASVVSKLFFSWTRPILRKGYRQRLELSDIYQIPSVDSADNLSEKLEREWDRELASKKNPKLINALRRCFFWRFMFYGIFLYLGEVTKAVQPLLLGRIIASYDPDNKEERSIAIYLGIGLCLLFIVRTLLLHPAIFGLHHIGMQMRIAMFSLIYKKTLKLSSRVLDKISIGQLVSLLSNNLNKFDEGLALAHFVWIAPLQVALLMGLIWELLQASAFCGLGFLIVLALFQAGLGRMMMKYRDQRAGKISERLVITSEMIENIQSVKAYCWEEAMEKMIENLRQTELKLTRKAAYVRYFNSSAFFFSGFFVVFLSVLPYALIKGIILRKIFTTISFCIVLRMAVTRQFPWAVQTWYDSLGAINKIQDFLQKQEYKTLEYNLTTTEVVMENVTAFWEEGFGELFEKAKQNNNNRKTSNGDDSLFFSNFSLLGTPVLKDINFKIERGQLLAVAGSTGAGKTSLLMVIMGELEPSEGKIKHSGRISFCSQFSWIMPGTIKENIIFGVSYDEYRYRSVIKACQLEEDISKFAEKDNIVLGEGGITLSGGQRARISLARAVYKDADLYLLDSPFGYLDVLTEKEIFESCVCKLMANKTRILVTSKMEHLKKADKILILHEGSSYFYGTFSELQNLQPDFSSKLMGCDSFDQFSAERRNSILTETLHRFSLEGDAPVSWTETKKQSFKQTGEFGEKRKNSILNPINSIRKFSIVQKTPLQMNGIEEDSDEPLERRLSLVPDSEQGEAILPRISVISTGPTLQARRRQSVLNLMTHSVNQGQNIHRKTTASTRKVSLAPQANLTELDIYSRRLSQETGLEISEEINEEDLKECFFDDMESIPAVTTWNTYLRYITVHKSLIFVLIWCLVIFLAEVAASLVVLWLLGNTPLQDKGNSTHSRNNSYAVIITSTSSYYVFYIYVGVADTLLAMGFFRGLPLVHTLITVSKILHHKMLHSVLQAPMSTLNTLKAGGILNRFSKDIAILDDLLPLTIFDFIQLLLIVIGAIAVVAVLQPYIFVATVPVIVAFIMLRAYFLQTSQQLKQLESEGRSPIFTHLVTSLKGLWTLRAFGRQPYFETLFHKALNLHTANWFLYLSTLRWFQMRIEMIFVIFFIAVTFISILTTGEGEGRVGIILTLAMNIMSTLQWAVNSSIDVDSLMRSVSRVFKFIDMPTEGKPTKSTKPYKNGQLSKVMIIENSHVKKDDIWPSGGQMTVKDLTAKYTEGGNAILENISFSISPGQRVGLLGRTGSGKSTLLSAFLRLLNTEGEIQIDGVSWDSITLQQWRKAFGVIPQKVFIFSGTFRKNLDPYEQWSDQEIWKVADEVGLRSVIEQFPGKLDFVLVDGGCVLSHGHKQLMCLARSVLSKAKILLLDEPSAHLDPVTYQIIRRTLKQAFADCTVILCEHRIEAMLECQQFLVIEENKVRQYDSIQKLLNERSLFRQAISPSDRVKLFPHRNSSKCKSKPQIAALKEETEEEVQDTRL

`CC1(C)CC2CCCNc3cccc(n3)S(=O)(=O)NC(=O)c3ccc(-n4ccc(OCC5C6(CC6)C56CC6)n4)nc3N1C2` (racemic) [Compound 105, 8-[3-({dispiro[2.0.2.1]heptan-7-yl}methoxy)-1H-pyrazol-1-yl]-12,12-dimethyl-2λ^6-thia-3,9,11,18,23-pentaazatetracyclo[17.3.1.111,14.05,10]tetracosa-1(22),5,7,9,19(23),20-hexaene-2,2,4-trione]: the EC50 (usually the concentration at which the effect is half-maximal) is under 1 µM and the “Max. Activity” value is “+++ (+++ is >60%)”.

Take `CC(C)(C)COc1ccn(-c2ccc3c(n2)N2C[C@H](CCNc4cccc(n4)S(=O)(=O)NC3=O)CC2(C)C)n1` (single isomer, unassigned) [Compound 2, 11-[3-(2,2-dimethylpropoxy)-1H-pyrazol-1-yl]-7,7-dimethyl-17λ^6-thia-2,8,10,16,22-pentaazatetracyclo[16.3.1.15,8.09,14]tricosa-1(21),9(14),10,12,18(22),19-hexaene-15,17,17-trione]: the EC50 lay in the range of 1 to 3 µM and the “Max. Activity” value was “+++ (+++ is >60%)”.

For `CC(C)(C)COc1ccn(-c2ccc3c(n2)N2C[C@H](CCNc4cccc(n4)S(=O)(=O)NC3=O)CC2(C)C)n1` (single isomer, unassigned) [Compound 3, 11-[3-(2,2-dimethylpropoxy)-1H-pyrazol-1-yl]-7,7-dimethyl-17λ^6-thia-2,8,10,16,22-pentaazatetracyclo[16.3.1.15,8.09,14]tricosa-1(21),9(14),10,12,18(22),19-hexaene-15,17,17-trione], the EC50 was under 1 µM and the “Max. Activity” value is “+++ (+++ is >60%)”.

Take `CC1(C)C[C@H]2CCNc3cccc(n3)S(=O)(=O)NC(=O)c3ccc(-n4ccc(OCC5(C(F)(F)F)CC5)n4)nc3N1C2` (single isomer, unassigned) [Compound 5, 7,7-dimethyl-11-(3-{[1-(trifluoromethyl)cyclopropyl]methoxy}-1H-pyrazol-1-yl)-17λ^6-thia-2,8,10,16,22-pentaazatetracyclo[16.3.1.1(5,8).0(9,14)]tricosa-1(21),9(14),10,12,18(22),19-hexaene-15,17,17-trione]: the concentration for a half-maximal effect (EC50) was under 1 µM and the “Max. Activity” value is “+++ (+++ is >60%)”.

For `CC1(C)C[C@H]2CCNc3cccc(n3)S(=O)(=O)NC(=O)c3ccc(-n4ccc(OCC5(C(F)(F)F)CC5)n4)nc3N1C2` (single isomer, unassigned) [Compound 6, 7,7-dimethyl-11-(3-{[1-(trifluoromethyl)cyclopropyl]methoxy}-1H-pyrazol-1-yl)-17λ^6-thia-2,8,10,16,22-pentaazatetracyclo[16.3.1.1(5,8).0(9,14)]tricosa-1(21),9(14),10,12,18(22),19-hexaene-15,17,17-trione], the EC50 is under 1 µM and the “Max. Activity” value is on record as “+++ (+++ is >60%)”.

Take `CC1(C)CC[C@H]2CCCOc3cccc(c3)S(=O)(=O)NC(=O)c3ccc(-n4ccc(OCCC5(C(F)(F)F)CC5)n4)nc3N21` (single isomer, unassigned) [Compound 7, 12,12-dimethyl-8-(3-{2-[1-(trifluoromethyl)cyclopropyl]ethoxy}-1H-pyrazol-1-yl)-19-oxa-2λ^6-thia-3,9,11-triazatetracyclo[18.3.1.05,10.011,15]tetracosa-1(24),5(10),6,8,20,22-hexaene-2,2,4-trione]: the EC50 was under 1 µM and the “Max. Activity” value was “++ (++ is 30-60%)”.

In the case of `CC1(C)CC[C@H]2CCCOc3cccc(c3)S(=O)(=O)NC(=O)c3ccc(-n4ccc(OCCC5(C(F)(F)F)CC5)n4)nc3N21` (single isomer, unassigned) [Compound 8, 12,12-dimethyl-8-(3-{2-[1-(trifluoromethyl)cyclopropyl]ethoxy}-1H-pyrazol-1-yl)-19-oxa-2λ^6-thia-3,9,11-triazatetracyclo[18.3.1.05,10.011,15]tetracosa-1(24),5(10),6,8,20,22-hexaene-2,2,4-trione], the EC50 was over 3 µM and the “Max. Activity” value is “+ (+ is <30%)”.

Consider `CC1(C)C[C@H]2CCCNc3cccc(n3)S(=O)(=O)NC(=O)c3ccc(-n4ccc(OCC5(C(F)(F)F)CC5)n4)nc3N1C2` (single isomer, unassigned) [Compound 21, 12,12-dimethyl-8-(3-{[1-(trifluoromethyl)cyclopropyl]methoxy}-1H-pyrazol-1-yl)-2λ^6-thia-3,9,11,18,23-pentaazatetracyclo[17.3.1.111,14.05,10]tetracosa-1(23),5(10),6,8,19,21-hexaene-2,2,4-trione], for which the concentration for a half-maximal effect (EC50) was over 3 µM and the “Max. Activity” value was “++ (++ is 30-60%)”.

For the molecule `CC1(C)C[C@H]2CCCNc3cccc(n3)S(=O)(=O)NC(=O)c3ccc(-n4ccc(OCC5(C(F)(F)F)CC5)n4)nc3N1C2` (single isomer, unassigned) [Compound 22, 12,12-dimethyl-8-(3-{[1-(trifluoromethyl)cyclopropyl]methoxy}-1H-pyrazol-1-yl)-2λ^6-thia-3,9,11,18,23-pentaazatetracyclo[17.3.1.111,14.05,10]tetracosa-1(23),5(10),6,8,19,21-hexaene-2,2,4-trione], the EC50 was under 1 µM and the “Max. Activity” value is given as “+++ (+++ is >60%)”.

Regarding `CC1(C)C[C@H]2CNc3cccc(n3)S(=O)(=O)NC(=O)c3ccc(-n4ccc(OCCC5(C(F)(F)F)CC5)n4)nc3N1C2` (single isomer, unassigned) [Compound 24, 6,6-dimethyl-10-(3-{2-[1-(trifluoromethyl)cyclopropyl]ethoxy}-1H-pyrazol-1-yl)-16λ^6-thia-2,7,9,15,21-pentaazatetracyclo[15.3.1.14,7.08,13]docosa-1(20),8,10,12,17(21),18-hexaene-14,16,16-trione], the EC50 is over 3 µM and the “Max. Activity” value was “+ (+ is <30%)”.

`CC1(C)C[C@H]2CNc3cccc(n3)S(=O)(=O)NC(=O)c3ccc(-n4ccc(OCCC5(C(F)(F)F)CC5)n4)nc3N1C2` (single isomer, unassigned) [Compound 25, 6,6-dimethyl-10-(3-{2-[1-(trifluoromethyl)cyclopropyl]ethoxy}-1H-pyrazol-1-yl)-16λ^6-thia-2,7,9,15,21-pentaazatetracyclo[15.3.1.14,7.08,13]docosa-1(20),8,10,12,17(21),18-hexaene-14,16,16-trione]: the EC50 is under 1 µM and the “Max. Activity” value is recorded as “++ (++ is 30-60%)”.

`CC1(C)C[C@H]2CCNc3cccc(n3)S(=O)(=O)NC(=O)c3ccc(-n4ccc(OCCC5(C(F)(F)F)CC5)n4)nc3N1C2` (single isomer, unassigned) [Compound 26, 7,7-dimethyl-11-(3-{2-[1-(trifluoromethyl)cyclopropyl]ethoxy}-1H-pyrazol-1-yl)-17λ^6-thia-2,8,10,16,22-pentaazatetracyclo[16.3.1.15,8.09,14]tricosa-1(21),9,11,13,18(22),19-hexaene-15,17,17-trione]: the half-maximal effective concentration (EC50) is under 1 µM and the “Max. Activity” value is recorded as “+++ (+++ is >60%)”.

Regarding `CC1(C)C[C@H]2CCNc3cccc(n3)S(=O)(=O)NC(=O)c3ccc(-n4ccc(OCCC5(C(F)(F)F)CC5)n4)nc3N1C2` (single isomer, unassigned) [Compound 27, 7,7-dimethyl-11-(3-{2-[1-(trifluoromethyl)cyclopropyl]ethoxy}-1H-pyrazol-1-yl)-17λ^6-thia-2,8,10,16,22-pentaazatetracyclo[16.3.1.15,8.09,14]tricosa-1(21),9,11,13,18(22),19-hexaene-15,17,17-trione], the EC50 is under 1 µM and the “Max. Activity” value was “+++ (+++ is >60%)”.
